Data taken from patent US7067619B2, “Integrin-binding peptides” (La Jolla Cancer Research Foundation, priority 1993, dated 2006).
Bridge positions count the residues as written; N and C are the ends. Ends that are not written are not given here. Peptide text beside a SMILES is read from it.

What was measured:
αvβ5 integrin = αvβ5 integrin (Homo sapiens, UniProt P06756+P18084); assay: Inhibition of αvβ5-mediated cell attachment to vitronectin; type: cell-based; set-up: αvβ5-mediated attachment of HT-29 cells to vitronectin; endogenous in cells; host or cells: HT-29 cells; UCLA-P3 cells
Excerpt: FIG. 12—αvβ5-mediated attachment of HT-29 cells to vitronectin.
(§1) Cell lines expressing different integrins were used to examine peptide inhibition of integrin function. A human melanoma cell line, C8161, a fibroblast cell line, WI-38, and an osteosarcoma cell line, MG-63 (described by Seftor et al., Canc. Res., 53:3411–3415 (1993); Vogel et al., J. Biol. Chem., 265:5934–5937 (1990); and Pytela et al. (1985), supra, respectively, each of which is incorporated herein by reference) attach to fibronectin through α5β1 integrin, as does B2/α27, a CHO cell line transfected with human α5. B2/C1, the control parental CHO line (Bauer et al., J. Cell. Biol. 116:477–487 (1992), which is incorporated herein by reference), attaches via […]. CHO cells C11 and NIH 3T3 cells express the endogenous Chinese hamster and mouse α5β1 integrins, respectively. The human melanoma cells, A375-M, attach to fibronectin through both α5β1 and α4β1 integrins (Mould et al., J. Biol. Chem. 265:4020–4024 (1990), which is incorporated herein by reference). CHO cell line B2/v7 express the αvβ1 integrin (Zhang et al., J. Cell. Biol. 122:235–242 (1993), which is incorporated herein by reference). The vitronectin-binding integrins αvβ1 and αvβ3 were assayed using the cell line HT-29 and IMR-90, respectively (Koivunen et al., J. Biol. Chem. 268: 20205–20210 (1993)).
Cell lines expressing fibronectin-binding integrins were used to determine peptide activities against these integrins in the cell attachment assay described by Ruoslahti et al., Meth. Enzymol., 144:803–831 (1982), which is incorporated herein by reference. Human plasma fibronectin was iodinated as described by Morla and Ruoslahti, J. Cell Biol., 118:421–429 (1992), which is incorporated herein by reference. Vitronectin was obtained from Telios Pharmaceuticals (San Diego, Calif.). […] Peptide was coated on plastic by incubating at 37° C. for 2 hours in phosphate buffered saline containing 0.25% glutaraldehyde to crosslink the peptide. Free binding sites on the plastic were blocked using BSA. Approximately 1×10^5 cells per well were allowed to attach for 1 hour in the presence or absence of competing peptides. Bound cells were quantitated by staining with 0.1% amido black.
Inhibition of cell attachment mediated by either fibronectin- or vitronectin-binding integrins was performed to determine peptide specificity in a biologically relevant system. The assays and cell lines were performed as described above. FIGS. 5 and 6 show the results of cell attachment mediated by the fibronectin binding integrins α5β1 and αvβ1.

[1] = Precipitation behaviour of the peptide in solution; type: physicochemical; conditions: neutral pH
α5β1 integrin [2] = biological target: T1, α5β1 integrin (Mus musculus, UniProt P09055+P11688); assay: Inhibition of attachment of NIH 3T3 cells to fibronectin; type: cell-based; conditions: mouse NIH 3T3 cells
T1 construct: CHO cells C11 and NIH 3T3 cells express the endogenous Chinese hamster and mouse α5β1 integrins, respectively; endogenous in cells; host or cells: NIH 3T3 cells
Excerpt: as §1, with “The vitronectin-binding integrins αvβ1 and αvβ3 were assayed using the cell line HT-29 and IMR-90, respectively (Koivunen et al., J. Biol. Chem. 268: 20205–20210 (1993)).” left out
(§2) Cell lines expressing fibronectin-binding integrins were used to determine peptide activities against these integrins in the cell attachment assay described by Ruoslahti et al., Meth. […] Bound cells were quantitated by staining with 0.1% amido black.

αvβ1 integrin = assay: Inhibition of αvβ1-mediated cell attachment to fibronectin; type: cell-based; conditions: less active, FIG. 6
Excerpt: as §1, with “The vitronectin-binding integrins αvβ1 and αvβ3 were assayed using the cell line HT-29 and IMR-90, respectively (Koivunen et al., J. Biol. Chem. 268: 20205–20210 (1993)).” left out
Cell lines expressing fibronectin-binding integrins were used to determine peptide activities against these integrins in the cell attachment assay described by Ruoslahti et al., Meth. […] Bound cells were quantitated by staining with 0.1% amido black. […]

α5β1 integrin [3] = assay: Inhibition of attachment of CHO C11 cells to fibronectin; type: cell-based, Chinese hamster
Excerpt: as §1, with “The vitronectin-binding integrins αvβ1 and αvβ3 were assayed using the cell line HT-29 and IMR-90, respectively (Koivunen et al., J. Biol. Chem. 268: 20205–20210 (1993)).” left out
as §2

Sequence of αvβ5 integrin (P06756 31-889 limits assumed): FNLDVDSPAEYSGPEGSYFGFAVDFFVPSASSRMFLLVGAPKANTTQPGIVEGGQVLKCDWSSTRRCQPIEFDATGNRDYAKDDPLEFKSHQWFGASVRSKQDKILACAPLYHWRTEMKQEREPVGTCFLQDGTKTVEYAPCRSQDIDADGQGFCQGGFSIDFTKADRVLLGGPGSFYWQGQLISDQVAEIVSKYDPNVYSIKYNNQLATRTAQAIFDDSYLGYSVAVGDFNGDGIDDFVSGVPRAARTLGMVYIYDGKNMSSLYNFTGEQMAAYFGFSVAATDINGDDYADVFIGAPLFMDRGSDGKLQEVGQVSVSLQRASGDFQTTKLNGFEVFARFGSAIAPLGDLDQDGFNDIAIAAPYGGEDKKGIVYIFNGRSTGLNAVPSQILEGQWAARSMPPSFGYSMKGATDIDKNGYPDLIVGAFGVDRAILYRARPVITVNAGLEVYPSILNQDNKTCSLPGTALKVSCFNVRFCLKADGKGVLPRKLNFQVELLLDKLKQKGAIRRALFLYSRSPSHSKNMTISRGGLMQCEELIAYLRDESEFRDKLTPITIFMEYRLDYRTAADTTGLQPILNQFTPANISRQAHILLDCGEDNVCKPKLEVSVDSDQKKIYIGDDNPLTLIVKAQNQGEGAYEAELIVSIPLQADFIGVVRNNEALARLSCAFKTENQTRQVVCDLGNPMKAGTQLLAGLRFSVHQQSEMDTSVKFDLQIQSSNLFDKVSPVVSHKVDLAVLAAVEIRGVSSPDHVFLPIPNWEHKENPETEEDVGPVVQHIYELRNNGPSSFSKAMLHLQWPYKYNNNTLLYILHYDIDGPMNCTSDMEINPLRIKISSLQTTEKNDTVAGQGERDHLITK
Sequence of αvβ5 integrin (P06756 891-1048 partner limits assumed): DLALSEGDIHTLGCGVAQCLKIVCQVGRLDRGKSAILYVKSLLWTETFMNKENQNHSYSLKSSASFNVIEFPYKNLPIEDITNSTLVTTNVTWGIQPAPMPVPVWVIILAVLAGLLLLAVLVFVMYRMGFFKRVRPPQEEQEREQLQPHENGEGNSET
Sequence of αvβ5 integrin (P18084 24-799): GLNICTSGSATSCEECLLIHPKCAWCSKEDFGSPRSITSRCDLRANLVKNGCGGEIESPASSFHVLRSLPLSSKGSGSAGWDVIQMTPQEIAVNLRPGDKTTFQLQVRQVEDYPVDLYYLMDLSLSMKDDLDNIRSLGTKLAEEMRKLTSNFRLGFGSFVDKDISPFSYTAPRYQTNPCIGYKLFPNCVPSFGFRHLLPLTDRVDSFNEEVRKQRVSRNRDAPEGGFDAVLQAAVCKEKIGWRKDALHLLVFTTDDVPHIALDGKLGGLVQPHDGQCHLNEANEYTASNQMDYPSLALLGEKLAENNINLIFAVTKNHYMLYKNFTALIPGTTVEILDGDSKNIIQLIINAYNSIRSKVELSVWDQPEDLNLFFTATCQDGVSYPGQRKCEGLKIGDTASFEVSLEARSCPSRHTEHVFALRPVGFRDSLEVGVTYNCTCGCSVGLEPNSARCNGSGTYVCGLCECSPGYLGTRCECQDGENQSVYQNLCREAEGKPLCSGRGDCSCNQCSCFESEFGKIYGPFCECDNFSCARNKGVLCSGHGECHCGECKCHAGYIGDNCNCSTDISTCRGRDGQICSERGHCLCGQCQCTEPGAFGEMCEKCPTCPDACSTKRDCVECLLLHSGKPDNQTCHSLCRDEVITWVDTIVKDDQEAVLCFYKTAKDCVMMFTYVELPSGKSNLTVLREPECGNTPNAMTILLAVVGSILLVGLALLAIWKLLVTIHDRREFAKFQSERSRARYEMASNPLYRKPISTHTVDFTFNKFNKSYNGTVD
T1 sequence (P11688 45-898 limits assumed): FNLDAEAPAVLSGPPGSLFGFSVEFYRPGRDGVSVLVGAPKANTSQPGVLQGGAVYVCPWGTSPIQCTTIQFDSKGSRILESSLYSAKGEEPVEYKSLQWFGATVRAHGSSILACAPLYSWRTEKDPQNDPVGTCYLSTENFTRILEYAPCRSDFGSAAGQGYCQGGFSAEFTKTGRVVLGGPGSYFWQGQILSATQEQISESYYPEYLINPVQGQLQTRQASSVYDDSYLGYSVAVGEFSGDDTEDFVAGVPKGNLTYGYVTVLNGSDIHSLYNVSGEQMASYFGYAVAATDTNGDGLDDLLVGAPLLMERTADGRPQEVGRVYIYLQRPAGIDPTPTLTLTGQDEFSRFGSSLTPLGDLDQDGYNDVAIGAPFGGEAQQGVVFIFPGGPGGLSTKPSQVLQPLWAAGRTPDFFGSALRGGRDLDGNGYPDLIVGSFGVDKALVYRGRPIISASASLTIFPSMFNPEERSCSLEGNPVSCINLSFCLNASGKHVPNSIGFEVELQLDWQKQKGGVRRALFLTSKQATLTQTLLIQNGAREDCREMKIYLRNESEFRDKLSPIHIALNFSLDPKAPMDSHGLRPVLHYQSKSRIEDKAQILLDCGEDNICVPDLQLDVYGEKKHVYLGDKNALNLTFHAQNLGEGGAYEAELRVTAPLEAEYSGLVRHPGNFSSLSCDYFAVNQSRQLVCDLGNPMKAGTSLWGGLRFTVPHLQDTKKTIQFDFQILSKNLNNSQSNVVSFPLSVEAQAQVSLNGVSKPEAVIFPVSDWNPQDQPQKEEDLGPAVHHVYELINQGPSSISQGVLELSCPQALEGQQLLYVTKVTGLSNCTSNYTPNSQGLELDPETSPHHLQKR
T1 sequence (P11688 899-1053 partner limits assumed): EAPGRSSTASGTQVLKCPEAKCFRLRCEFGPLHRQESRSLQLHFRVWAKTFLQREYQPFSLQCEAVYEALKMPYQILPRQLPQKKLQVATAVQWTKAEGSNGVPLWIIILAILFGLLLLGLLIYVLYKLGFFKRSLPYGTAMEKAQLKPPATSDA
T1 sequence (P09055 21-798): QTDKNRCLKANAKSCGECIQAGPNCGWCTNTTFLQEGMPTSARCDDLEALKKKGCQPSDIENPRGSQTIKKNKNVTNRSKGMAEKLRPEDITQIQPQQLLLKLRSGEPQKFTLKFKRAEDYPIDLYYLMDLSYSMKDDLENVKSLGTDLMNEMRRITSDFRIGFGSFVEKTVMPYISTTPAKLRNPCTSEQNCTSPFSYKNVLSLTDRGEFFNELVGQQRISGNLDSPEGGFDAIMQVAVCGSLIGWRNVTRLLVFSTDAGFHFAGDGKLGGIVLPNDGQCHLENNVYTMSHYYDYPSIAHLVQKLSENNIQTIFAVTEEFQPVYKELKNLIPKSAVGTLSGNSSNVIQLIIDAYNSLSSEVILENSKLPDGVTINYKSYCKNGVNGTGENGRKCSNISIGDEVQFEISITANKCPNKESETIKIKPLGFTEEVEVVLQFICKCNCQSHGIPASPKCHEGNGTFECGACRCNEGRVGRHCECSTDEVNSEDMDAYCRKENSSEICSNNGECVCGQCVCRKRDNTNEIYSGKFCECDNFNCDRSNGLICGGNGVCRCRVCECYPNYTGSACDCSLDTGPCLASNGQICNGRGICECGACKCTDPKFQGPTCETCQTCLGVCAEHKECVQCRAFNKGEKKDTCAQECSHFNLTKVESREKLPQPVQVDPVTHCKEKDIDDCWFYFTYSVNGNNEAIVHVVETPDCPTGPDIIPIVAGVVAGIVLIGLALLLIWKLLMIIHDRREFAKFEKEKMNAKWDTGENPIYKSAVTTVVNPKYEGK

C[C@H](N)C(=O)N[C@H]1CSSC[C@@H](C(=O)NCC(=O)O)NC(=O)[C@H](Cc2ccccc2)NC(=O)[C@@H]2CSSC[C@H](NC(=O)[C@H](CC(=O)O)NC1=O)C(=O)N[C@@H](CCCNC(=N)N)C(=O)NCC(=O)N[C@@H](CC(=O)O)C(=O)N2 (H-ACDCRGDCFCG-OH; disulfide 2-10, 4-8)
affinity relative to *CRGDC* in HT-29 attachment to vitronectin (αvβ5 integrin; HT-29 cells, higher than *CRGDC*): 40 fold | affinity relative to A*CRGDGWC*G in HT-29 attachment to vitronectin (αvβ5 integrin; HT-29 cells, higher than A*CRGDGWC*G): 40 fold | enhancement in activity relative to *CRGDC* in UCLA-P3 cells (αvβ5 integrin; UCLA-P3 cells): 20 fold

A*CPSRLDSPC*G (ACPSRLDSPCG; disulfide 2-10 (inferred))
precipitation of the peptide [1]: tendency of the peptide precipitate at neutral pH

GACRRETAWACGA
blocking of attachment of NIH 3T3 cells to fibronectin (α5β1 integrin [2]): could not block | activity against αvβ1 relative to CELRGDGWC (αvβ1 integrin): about 40 × | activity against αvβ1 relative to the cyclic RGD peptide (αvβ1 integrin): greater than 100 × | activity against cell attachment to vitronectin (αvβ5 integrin; all concentrations tested, FIG. 7 (sentence prints αvβ1)): essentially devoid of activity | blocking of attachment of CHO C11 cells to fibronectin (α5β1 integrin [3]): could not block
